Target: T1, GPR120L (Long Isoform) receptor (Homo sapiens, UniProt Q5NUL3)
T1 construct: expressed in transfected cells; similar procedure in HEK 293 cells
T1 sequence (Q5NUL3 1-377 isoform Q5NUL3-1): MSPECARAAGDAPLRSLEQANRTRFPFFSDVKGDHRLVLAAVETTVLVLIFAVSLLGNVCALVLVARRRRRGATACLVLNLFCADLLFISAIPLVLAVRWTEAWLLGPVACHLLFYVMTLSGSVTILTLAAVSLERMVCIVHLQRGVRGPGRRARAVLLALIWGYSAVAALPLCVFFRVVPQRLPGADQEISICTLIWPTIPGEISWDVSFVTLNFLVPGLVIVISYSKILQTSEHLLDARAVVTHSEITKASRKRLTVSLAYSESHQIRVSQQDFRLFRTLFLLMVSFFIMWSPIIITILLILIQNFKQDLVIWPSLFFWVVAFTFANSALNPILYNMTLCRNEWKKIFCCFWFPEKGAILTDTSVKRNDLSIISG
Assay: Beta (β) arrestin 2 Interaction Assay (β-galactosidase enzyme fragment complementation)
Assay type: cell-based
Conditions: β-arrestin recruitment; CHO-K1 cells stably expressing GPR120L, similar procedure for HEK 293 cells; 2 hours incubation
Description: Beta (β) arrestin 2 Interaction Assay […] was performed using CHO-K1 cells stably expressing the GPR120L (Long Isoform) receptor using β-galactosidase (Beta gal) enzyme fragment complementation assay. The measurement of GPR120 activation upon agonist activation was directly provided by β-arrestin recruitment. One day before the β-arrestin 2 assay, CHO-K1 cells were seeded and incubated overnight at 37° C. in a 5% CO2 humidified atmosphere. Cells were treated with the test compounds in various concentrations ranging from 30 μM to 1 nM and incubated for 2 hours for GPCR (GPR120) activation. Extent of Arrestin recruitment was measured by adding detection reagents for Beta gal complementation assay, and was further incubated for 1 hour. The chemiluminescent signal was detected on Polar Star (BMG Labtech). The dose-response curve was analyzed using Sigma Plot/Graph Pad. The EC50 (concentration of the test compounds where 50% of compounds' maximal activity is observed) values were calculated from the dose-response curve.

Row | Structure (SMILES) | EC50 [nM]
1 | Cc1ccc(-c2ccc(F)cc2C#Cc2ccc(CCCC(=O)O)nc2)s1 [Compound 3, 4-(5-((5-Fluoro-2-(5-methylthiophen-2-yl)phenyl)ethynyl)pyridin-2-yl)butanoic acid] | 5000 to 10000
2 | Cc1ccc(-c2ccc(F)cc2CC(F)(F)c2ccc(CCCC(=O)O)cc2)s1 [Compound 5, 4-(4-(1,1-Difluoro-2-(5-fluoro-2-(5-methylthiophen-2-yl)phenyl)ethyl)phenyl)butanoic acid] | 50 to 500
3 | CC1(c2ccc(-c3ccc(F)cc3CC(F)(F)c3ccc(CCCC(=O)O)cc3)s2)CC1 [Compound 6, 4-(4-(1,1-Difluoro-2-(5-fluoro-2-(5-(1-methylcyclopropyl)thiophen-2-yl)phenyl)ethyl)phenyl)butanoic acid] | 500 to 5000
4 | N#CC1(c2ccc(-c3ccc(F)cc3C#Cc3ccc(CCCC(=O)O)cc3)s2)CC1 [Compound 11, 4-(4-((2-(5-(1-Cyanocyclopropyl)thiophen-2-yl)-5-fluorophenyl)ethynyl)phenyl)butanoic acid] | 500 to 5000
5 | O=C(O)CCCc1ccc(CCc2cc(F)ccc2-c2nc3c(s2)CCCC3)cc1 [Compound 12, 4-(4-(5-fluoro-2-(4,5,6,7-tetrahydrobenzo[d]thiazol-2-yl)phenethyl)phenyl)butanoic acid] | 50 to 500

More lines, now with the values ahead:

Row | EC50 [nM] | Structure (SMILES)
6 | 50 to 500 | CC1(c2ccc(-c3ccc(F)cc3C=Cc3ccc(CCCC(=O)O)cc3)s2)CC1 [Compound 14, 4-(4-(5-fluoro-2-(5-(1-methylcyclopropyl)thiophen-2-yl)styryl)phenyl)butanoic acid]
7 | 50 to 500 | O=C(O)CCCc1ccc(C#Cc2cc(F)ccc2-c2ccc(C3CC3)s2)cc1 [Compound 18, 4-(4-((2-(5-cyclopropylthiophen-2-yl)-5-fluorophenyl)ethynyl)phenyl)butanoic acid]
8 | 50 to 500 | COc1ccc(-c2ccc(F)cc2CC(F)(F)c2ccc(CCCC(=O)O)cc2)cn1 [Compound 20, 4-(4-(1,1-difluoro-2-(5-fluoro-2-(6-methoxypyridin-3-yl)phenyl)ethyl)phenyl)butanoic acid]

Reference: patent US11773077B2, “Compounds containing carbon-carbon linker as GPR120 agonists” (PIRAMAL ENTERPRISES LIMITED, priority 2015, dated 2023)
